Tested on: thrombogenesis or thrombus formation
Assay: Inhibitory activity against thrombogenesis, modified arterio-venous shunt thrombosis model in rats
Format: in vivo, male Sprague Dawley rats
Details: oral, shunt circulation started 2 h after administration, 30 min circulation, average ±SE (n=6)
Description: As the test animals, male Sprague Dawley rats of 7 weeks old were purchased from SLC Japan and 6 rats per group were used.
2-Acetoxy-5-(α-cyclopropylcarbonyl-2-fluorobenzyl)-4,5,6,7-tetrahydrothieno[3,2-c]pyridine was synthesized according to the method described in the Specification of Japanese Patent Application Publication No. Hei 6-41139 and was used, while aspirin was purchased from Sigma Chemical Co. and was used. Both compounds were suspended in 5% (w/v) gum arabic solution, and were diluted so as to be 1 ml/kg of administration volume and were orally administered.
The inhibitory activities of the compounds against thrombogenesis or thrombus formation were evaluated in the modified arterio-venous shunt thrombosis model in rats, which was described by Umetsu et al. [Thromb. Haemost., 39, 74-83 (1978)].
The shunt tube was prepared as follows; i.e., both sides of a medical silicon tube of 12 cm length [inner diameter: 1.5 mm, outer diameter: 2.5 mm, purchased from KANEKA Medix Co., Ltd] were connected each to a polyethylene tube of 7 cm length [inner diameter: 0.5 mm, outer diameter: 1.0 mm, purchased from Natsume Seisakusho Co., Ltd.] covered with silicon via a medical silicon tube of 0.7 cm length [inner diameter: 1.0 mm, outer diameter: 1.5 mm, KANEKA Medix Co., Ltd] as connector. A surgical suture of 10 cm length was placed in the silicon tube of 12 cm length.
The animal was anesthetized with an intraperitoneal injection of 40 mg/kg of pentobarbital sodium (purchased from Abbott Laboratories Inc.), and the jugular of one side and the carotid of the other side were exposed. The arteriovenous shunt was made by cannulation of a shunt tube filled with heparin solution [[…], purchased from Fuso Pharmaceutical Co., Ltd] into the carotid and the jugular which had been previously exposed.
The test compounds were orally administered and the blood was started to circulate into the shunt area two hours after the administration. Thirty minutes after the circulation was started, the shunt tube was removed, and the thrombus adsorbed on the surgical suture was weighed. The results in the table are expressed as the average weight ±SE (n=6).

Row | Compound | Inhibition Rate (Aspirin 10 mg/kg alone) | Thrombus Weight (Aspirin 10 mg/kg alone) | Inhibition Rate (Compound A 0.3 mg/kg alone) | Thrombus Weight (Compound A 0.3 mg/kg alone) | Inhibition Rate (Compound A 0.6 mg/kg alone) | Thrombus Weight (Compound A 0.6 mg/kg alone)
1 | CC(=O)Oc1ccccc1C(=O)O [Aspirin, aspirin] | 12.3 ± 4.4% | 46.6 ± 2.8 mg | – | – | – | –
2 | CC(=O)Oc1cc2c(s1)CCN(C(C(=O)C1CC1)c1ccccc1F)C2 (stereo not drawn) [Compound A, 2-Acetoxy-5-(α-cyclopropylcarbonyl-2-fluorobenzyl)-4,5,6,7-tetrahydrothieno[3,2-c]pyridine] | – | – | 17.0 ± 4.1% | 43.5 ± 2.1 mg | 28.3 ± 4.0% | 37.5 ± 2.1 mg

Source: patent US8404703B2, “Medicinal compositions containing aspirin” (Daiichi Sankyo Company, Limited, priority 2000, dated 2013)
